The test system of the test is TGFβ signal. The test can be described thus: TGFβ signal inhibitory activity, (SBE)4-Luc reporter in A549 cells (Test Examples 1A and 1B). It counts as cell-based, human. The settings on record: Homo sapiens, A549, compounds of Reference Examples (Test Example 1B), read-out: TGFβ inhibition rate, %. In short, it runs like this:
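Compounds at 3 µM and 10 µM (some 1 µM) were added with 2 ng/ml TGFβ-1 to A549 cells stably expressing an SBE-driven luciferase, then cultured 4 hr. Chemiluminescent luciferase signal gave % inhibition versus TGFβ-alone and no-TGFβ controls.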

Molecules are shown by their SMILES.

Usually inhibition stands for the drop in the measured response relative to a control, in per cent. Consider `COc1cc2nccc(Oc3ccc(C)nc3-c3ccccc3C(C)=O)c2cc1OC` [Compound r225], for which the inhibition at 3 µM was 39% and the inhibition at 10 µM was 78%.
For `COc1cc2nccc(Oc3ccc(C)nc3-c3ccccc3O)c2cc1OC` [Compound r226], in that order: 60% and 96%.
For `COc1cc2nccc(Oc3ccc(C)nc3-c3ccccc3OC)c2cc1OC` [Compound r227], in that order: 50% and 87%.
With `COc1cc2nccc(Oc3ccc(C)nc3-c3ccccc3Cl)c2cc1OC` [Compound r228], the inhibition at 3 µM was determined as 88% and the inhibition at 10 µM came to 100%.
Turning to `COc1cc2nccc(Oc3ccc(C)nc3-c3cccc(C)c3)c2cc1OC` [Compound r229], the inhibition at 3 µM was 99% and the inhibition at 10 µM was 100%.
With `COc1cc2nccc(Oc3ccc(C)nc3-c3cccc(C(F)(F)F)c3)c2cc1OC` [Compound r230], the inhibition at 3 µM came out at 60% and the inhibition at 10 µM was 97%.
For the molecule `COc1cc2nccc(Oc3ccc(C)nc3-c3cccc(CO)c3)c2cc1OC` [Compound r231], the inhibition at 3 µM is 100% and the inhibition at 10 µM came to 100%.
Regarding `COc1cc2nccc(Oc3ccc(C)nc3-c3cccc(C(C)=O)c3)c2cc1OC` [Compound r232], the inhibition at 3 µM worked out at 66% and the inhibition at 10 µM turned out to be 79%.
For `COc1cc2nccc(Oc3ccc(C)nc3-c3cccc(C(N)=O)c3)c2cc1OC` [Compound r233], in that order: 98% and 100%.
The matching figures for `COc1cc2nccc(Oc3ccc(C)nc3-c3cccc(C#N)c3)c2cc1OC` [Compound r234]: 87% and 100%.
The matching figures for `COc1cc2nccc(Oc3ccc(C)nc3-c3cccc(N)c3)c2cc1OC` [Compound r235]: 100% and 100%.
Turning to `COc1cc2nccc(Oc3ccc(C)nc3-c3cccc(NC(C)=O)c3)c2cc1OC` [Compound r236], the inhibition at 3 µM is 90% and the inhibition at 10 µM worked out at 100%.
`COc1cc2nccc(Oc3ccc(C)nc3-c3cccc(O)c3)c2cc1OC` [Compound r237]: the inhibition at 3 µM was found to be 100% and the inhibition at 10 µM came out at 100%.
Take `COc1cccc(-c2nc(C)ccc2Oc2ccnc3cc(OC)c(OC)cc23)c1` [Compound r238]: the inhibition at 3 µM was 92% and the inhibition at 10 µM is 100%.
`CCOc1cccc(-c2nc(C)ccc2Oc2ccnc3cc(OC)c(OC)cc23)c1` [Compound r239]: the inhibition at 3 µM is 83% and the inhibition at 10 µM was 100%.
As to `COc1cc2nccc(Oc3ccc(C)nc3-c3cccc(F)c3)c2cc1OC` [Compound r240], the inhibition at 3 µM turned out to be 100% and the inhibition at 10 µM came out at 100%.
With `COc1cc2nccc(Oc3ccc(C)nc3-c3cccc(Cl)c3)c2cc1OC` [Compound r241], the inhibition at 3 µM was determined as 96% and the inhibition at 10 µM stood at 100%.
For `COc1cc2nccc(Oc3ccc(C)nc3-c3ccc(C)cc3)c2cc1OC` [Compound r242], in that order: 68% and 99%.
The matching figures for `COc1cc2nccc(Oc3ccc(C)nc3-c3ccc(C(C)C)cc3)c2cc1OC` [Compound r243]: -7% and 62%.
The matching figures for `CCCCc1ccc(-c2nc(C)ccc2Oc2ccnc3cc(OC)c(OC)cc23)cc1` [Compound r244]: -3% and 63%.
Turning to `COc1cc2nccc(Oc3ccc(C)nc3-c3ccc(CO)cc3)c2cc1OC` [Compound r245], the inhibition at 3 µM is 80% and the inhibition at 10 µM was 99%.
The matching figures for `COc1cc2nccc(Oc3ccc(C)nc3-c3ccc(C(C)=O)cc3)c2cc1OC` [Compound r246]: 64% and 93%.
Take `COc1cc2nccc(Oc3ccc(C)nc3-c3ccc(N(C)C)cc3)c2cc1OC` [Compound r247]: the inhibition at 3 µM was found to be 93% and the inhibition at 10 µM amounted to 100%.
The matching figures for `COc1cc2nccc(Oc3ccc(C)nc3-c3ccc(O)cc3)c2cc1OC` [Compound r248]: 99% and 100%.
The matching figures for `COc1ccc(-c2nc(C)ccc2Oc2ccnc3cc(OC)c(OC)cc23)cc1` [Compound r249]: 52% and 98%.
The matching figures for `COc1cc2nccc(Oc3ccc(C)nc3-c3ccc(Oc4ccccc4)cc3)c2cc1OC` [Compound r250]: 34% and 81%.
As for `COc1cc2nccc(Oc3ccc(C)nc3-c3ccc(F)cc3)c2cc1OC` [Compound r251], the inhibition at 3 µM stood at 84% and the inhibition at 10 µM stood at 100%.
For `COc1cc2nccc(Oc3ccc(C)nc3-c3ccc(Cl)cc3)c2cc1OC` [Compound r252], in that order: 16% and 78%.
For `COc1cc2nccc(Oc3ccc(C)nc3-c3c(Cl)cccc3Cl)c2cc1OC` [Compound r253], in that order: 68% and 97%.
The matching figures for `COc1cc2nccc(Oc3ccc(C)nc3-c3cc(F)cc(F)c3)c2cc1OC` [Compound r254]: 100% and 100%.
Consider `COc1cc2nccc(Oc3ccc(C)nc3-c3cc(C)n(C)n3)c2cc1OC` [Compound r256, 4-[2-(1,5-Dimethyl-1H-pyrazol-3-yl)-6-methyl-pyridin-3-yloxy]-6,7-dimethoxy-quinoline], for which the inhibition at 3 µM was determined as 98% and the inhibition at 10 µM is 100%.
Turning to `COc1cc2nccc(Oc3ccc(C)nc3-c3cc(C)nn3C)c2cc1OC` [Compound r257], the inhibition at 3 µM amounted to 15% and the inhibition at 10 µM came to 62%.
Take `COc1cc2nccc(Oc3cc(C)c(C)nc3-c3nc(C)c(C)s3)c2cc1OC` [Compound r260, 4-[2-(4,5-Dimethylthiazol-2-yl)-5,6-dimethyl-pyridin-3-yloxy]-6,7-dimethoxy-quinoline]: the inhibition at 3 µM was 96% and the inhibition at 10 µM was found to be 100%.
`COc1cc2nccc(Oc3ccc(C)nc3-c3cccnc3)c2cc1OC` [Compound r262]: the inhibition at 3 µM came out at 91% and the inhibition at 10 µM was determined as 100%.
As to `COc1cc2nccc(Oc3ccc(C)nc3-c3ccncc3)c2cc1OC` [Compound r263], the inhibition at 3 µM amounted to 82% and the inhibition at 10 µM is 99%.
For `COc1cc2nccc(Oc3ccc(C)nc3-c3cccc(C)n3)c2cc1OC` [Compound r264], in that order: 88% and 100%.
For `COc1cc2nccc(Oc3ccc(C)nc3-c3cncnc3)c2cc1OC` [Compound r265], in that order: 45% and 85%.
On to `COc1cc2nccc(Oc3ccc(SC)nc3-c3ccccn3)c2cc1OC` [Compound r266], for which the inhibition at 3 µM is 92% and the inhibition at 10 µM came to 100%.
As to `COc1cc2nccc(Oc3cc(C)c(C)nc3-c3ccccn3)c2cc1OC` [Compound r269], the inhibition at 1 µM (1 µM) amounted to 97%.
As to `COc1cc2nccc(Oc3cc(C)c(C)nc3-c3cccnc3)c2cc1OC` [Compound r270], the inhibition at 3 µM was found to be 100%.

The values above are taken from patent EP1724268A1, “COMPOUND HAVING TGF-BETA INHIBITORY ACTIVITY AND PHARMACEUTICAL COMPOSITION CONTAINING SAME” (KIRIN BEER KABUSHIKI KAISHA, priority 2004, dated 2005).
